Results as given in patent US20220401411A1, “ZAFIRLUKAST DERIVATIVES FOR USE AS CONTRACEPTIVE AGENTS” (Rigshospitalet, priority 2019, published 2022).

Molecular target: T1, human CatSper (Homo sapiens, UniProt Q7RTX7+Q86XQ3+Q8NEC5+Q96P56)
T1 construct: isolated motile sperm cells from freshly ejaculated semen samples of healthy human donors; endogenous in cells; host or cells: motile human sperm cells from ejaculates of healthy donors (swim-up)
Assay: Inhibition of CatSper activation in human sperm cells, Ca2+-fluorophore plate reader assay
Type: cell-based
Conditions: for Inhibition of activation of human CatSper by progesterone / Inhibition of activation of human CatSper by intracellular alkalization via NH4Cl: low μM doses, human sperm cells, [Ca2+]i fluorescence; for Inhibition of activation of human CatSper by progesterone: 500 nM progesterone; for Inhibition of activation of human CatSper by intracellular alkalization via NH4Cl: 3 mM NH4Cl; for IC50: motile human sperm cells (swim-up), Ca2+-fluorophore, CatSper activated by 500 nM progesterone, dose inhibition curve, read-out: IC50, inhibition of progesterone-induced signals through CatSper
From the text: (§1) Isolated live and motile human sperm cells were loaded with a Ca^2+-sensitive fluorophore, washed and aliquoted to a 384-well plate placed in a fluorescence plate reader. Readouts in ΔF/F0 (%) on the y-axis reflect the intracellular concentration of Ca^2+ ([Ca^2+],) in the sperm cells as a function of time (FIG. 1, 2, 4) or dose of zafirlukast (FIG. 3).
After measuring the baseline fluorescence for 80s serially diluted doses of zafirlukast as well as a negative buffer control (FIGS. 1 and 4) were added to the sperm cells. Hereafter the measurement was continued for a few minutes before a second addition of 500 nM progesterone (FIG. 1) or 3 mM NH4Cl (FIG. 4) to activate CatSper. […] CatSper-signals induced by 500 nM progesterone (FIG. 2) in the presence of serially diluted doses of zafirlukast are used for the dose inhibition curve for zafirlukast on progesterone-induced signals through CatSper (FIG. 3).
as §1, with “5, 6, 8)” for “1, 2, 4)”, “aniline derivate” for “zafirlukast”, “7).” for “3).”
After measuring the baseline fluorescence for 80s serially diluted doses of aniline derivative as well as a negative buffer control (FIGS. 5 and 8) were added to the sperm cells. Hereafter the measurement was continued for a few minutes before a second addition of 500 nM progesterone (FIG. 5) or 3 mM NH4Cl (FIG. 8) to activate CatSper. […] CatSper-signals induced by 500 nM progesterone (FIG. 6) in the presence of serially diluted doses of the aniline derivative are used for the dose inhibition curve for aniline derivative on progesterone-induced signals through CatSper (FIG. 7).
(§2) To assess the effect of zafirlukast on CatSper in human sperm cells, we first isolated motile sperm cells from freshly ejaculated semen samples of healthy human donors through the swim-up method. Then we loaded these sperm cells with a Ca^2+-fluorophore, i.e. a molecule that emits light more intensively when [Ca^2+], increases. Hereafter we aliquoted these fluorophore-loaded sperm cells to the wells of micro-well plates and inserted the plate into a fluorescence plate reader, that measures the light emitted from the Ca^2+-fluorophore. After measuring the baseline fluorescence for 80s we added to the wells serially diluted doses of zafirlukast (FIGS. 1 and 4). Hereafter we continued the measurement for a few minutes before a second addition of 500 nM progesterone (FIG. 1) or 3 mM NH4Cl (FIG. 4) to activate CatSper.
as §2, with “the aniline derivative” for “zafirlukast”, “[Ca^2*],” for “[Ca^2+],”, “5” for “1”, “8).” for “4).”, “5)” for “1)”, “8)” for “4)”

In the case of `COc1cc(C(=O)NS(=O)(=O)c2ccccc2C)ccc1Cc1cn(C)c2ccc(N)cc12` [aniline derivative], the “Inhibition of activation of human CatSper by progesterone” value is reported as “inhibits the activation of human CatSper”, the “Inhibition of activation of human CatSper by intracellular alkalization via NH4Cl” value is reported as “inhibits the activation of human CatSper” and the IC50 is reported as ~900 nM.
For `COc1cc(C(=O)NS(=O)(=O)c2ccccc2C)ccc1Cc1cn(C)c2ccc(NC(=O)OC3CCCC3)cc12` [zafirlukast], the “Inhibition of activation of human CatSper by progesterone” value was “inhibits the activation of human CatSper”, the “Inhibition of activation of human CatSper by intracellular alkalization via NH4Cl” value was “inhibits the activation of human CatSper” and the IC50 was ~2200 nM.
